Data: patent US20250163104A1, “MACROCYCLIC IMMUNOMODULATORS” (priority 2021, published 2025)
Where a SMILES comes first, the peptide text is derived from it. Bridges are numbered along the chain shown (N, C = ends). [ ]: non-standard residue; d: D form. The star is where a group is joined. Phe(3-CF3) = N[C@@H](Cc1cccc(C(F)(F)F)c1)C(=O)O; Ala(morpholin-4-yl) = N[C@@H](CN1CCOCC1)C(=O)O; Phe(4-COOH) = N[C@@H](Cc1ccc(C(=O)O)cc1)C(=O)O; Bip = N[C@@H](Cc1ccc(-c2ccccc2)cc1)C(=O)O; Abu(3R-NH2) = C[C@@H](N)[C@H](N)C(=O)O; Phe(3-Me) = Cc1cccc(C[C@H](N)C(=O)O)c1; Val(3-OH) = CC(C)(O)[C@H](N)C(=O)O; Cha = N[C@@H](CC1CCCCC1)C(=O)O; Carboxymethyl = O=C(O)C*; Nle = CCCC[C@H](N)C(=O)O; Orn = NCCC[C@H](N)C(=O)O; Dab = NCC[C@H](N)C(=O)O

Each compound was assayed against T1, human PD-1 / PD-L1-Ig binding on Jurkat cell line over-expressing human PD-1 (Jurkat-PD-1) (Homo sapiens, UniProt Q15116) (assay: Jurkat-PD-1 Cell Binding High-Content Screening Assay (CBA)). Settings: Jurkat-PD-1 cells, PE-labeled PD-L1-Ig 20 nM final; read-out: Jurkat HPD1_PDL1 IC50.
T1 construct: expressed in transfected cells; host or cells: Jurkat
T1 sequence (Q15116 25-288): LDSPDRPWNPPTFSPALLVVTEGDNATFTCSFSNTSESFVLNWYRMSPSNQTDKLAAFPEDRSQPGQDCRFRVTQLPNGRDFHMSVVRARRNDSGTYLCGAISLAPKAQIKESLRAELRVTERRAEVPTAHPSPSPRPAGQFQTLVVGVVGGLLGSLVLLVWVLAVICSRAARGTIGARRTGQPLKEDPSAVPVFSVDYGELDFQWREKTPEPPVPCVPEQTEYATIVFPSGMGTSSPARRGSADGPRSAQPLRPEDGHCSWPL
Assay type: cell-based
Outline: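 Read-out: high-content imaging of PE-tagged PD-L1-Ig bound to Jurkat cells overexpressing human PD-1, after fixation with 4% paraformaldehyde and Hoechst 33342 nuclear staining. Ligand was used at 20 nM final for 1 hour, after a 2 h compound exposure at 37° C in serum-containing DMEM.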

| Structure (SMILES) | IC50 |
| --- | --- |
| CCCC[C@@H]1NC(=O)CSC[C@@H](C(=O)N[C@@H](CCN)C(N)=O)NC(=O)[C@H](CO)NC(=O)[C@H](C(C)(C)O)NC(=O)[C@H](CC2CCCCC2)NC(=O)[C@H](CCN)NC(=O)[C@@H](CC(C)C)NC(=O)[C@H](CCCN)NC(=O)[C@H](Cc2ccc(C(=O)O)cc2)NC(=O)[C@H](Cc2ccc(-c3ccccc3)cc2)NC(=O)[C@H](Cc2ccc(C(=O)O)cc2)NC(=O)[C@H](Cc2cccc(C(F)(F)F)c2)NC(=O)[C@H](CC(=O)O)NC(=O)[C@H](Cc2ccc(OCC(=O)O)cc2)NC1=O [Example 2713] ({CH2CO}-[Nle]Y(Carboxymethyl)D[Phe(3-CF3)][Phe(4-COOH)][Bip][Phe(4-COOH)][Orn][dL][Dab][Cha][Val(3-OH)]SC[Dab]-NH2; thioether N-14) | 0.7 nM |
| CCCC[C@@H]1NC(=O)CSC[C@@H](C(=O)N[C@@H](CCN)C(N)=O)NC(=O)[C@H](CCC(=O)O)NC(=O)[C@H](C(C)(C)O)NC(=O)[C@H](CC2CCCCC2)NC(=O)[C@H](CCN)NC(=O)[C@@H](CC(C)C)NC(=O)[C@H](CCCN)NC(=O)[C@H](Cc2ccc(C(=O)O)cc2)NC(=O)[C@H](Cc2ccc(-c3ccccc3)cc2)NC(=O)[C@H](Cc2ccc(C(=O)O)cc2)NC(=O)[C@H](Cc2cccc(C)c2)NC(=O)[C@H](CC(=O)O)NC(=O)[C@H](Cc2ccc(OCC(=O)O)cc2)NC1=O [Example 2714] ({CH2CO}-[Nle]Y(Carboxymethyl)D[Phe(3-Me)][Phe(4-COOH)][Bip][Phe(4-COOH)][Orn][dL][Dab][Cha][Val(3-OH)]EC[Dab]-NH2; thioether N-14) | 0.3 nM |
| CC(C)C[C@H]1NC(=O)[C@H](CCCN)NC(=O)[C@H](Cc2ccc(C(=O)O)cc2)NC(=O)[C@H](Cc2ccc(-c3ccccc3)cc2)NC(=O)[C@H](Cc2ccc(C(=O)O)cc2)NC(=O)[C@H](Cc2cccc(C(F)(F)F)c2)NC(=O)[C@H](CC(N)=O)NC(=O)[C@H](Cc2ccc(C(=O)O)cc2)NC(=O)[C@H]([C@@H](C)N)NC(=O)CSC[C@@H](C(=O)N[C@@H](CCN)C(N)=O)NC(=O)[C@H](CO)NC(=O)[C@H](C(C)(C)O)NC(=O)[C@H](CC2CCCCC2)NC(=O)[C@H](CCN)NC1=O [Example 2717] ({CH2CO}-[Abu(3R-NH2)][Phe(4-COOH)]N[Phe(3-CF3)][Phe(4-COOH)][Bip][Phe(4-COOH)][Orn][dL][Dab][Cha][Val(3-OH)]SC[Dab]-NH2; thioether N-14) | 35.6 nM |
| CCCC[C@@H]1NC(=O)CSC[C@@H](C(=O)N[C@@H](CCN)C(N)=O)NC(=O)[C@H](CO)NC(=O)[C@H](C(C)(C)O)NC(=O)[C@H](CC2CCCCC2)NC(=O)[C@H](CCN)NC(=O)[C@@H](CC(C)C)NC(=O)[C@H](CCCN)NC(=O)[C@H](Cc2ccc(C(=O)O)cc2)NC(=O)[C@H](Cc2ccc(-c3ccccc3)cc2)NC(=O)[C@H](Cc2ccc(C(=O)O)cc2)NC(=O)[C@H](Cc2cccc(C(F)(F)F)c2)NC(=O)[C@H](CC(N)=O)NC(=O)[C@H](Cc2ccc(C(=O)O)cc2)NC1=O [Example 2718] ({CH2CO}-[Nle][Phe(4-COOH)]N[Phe(3-CF3)][Phe(4-COOH)][Bip][Phe(4-COOH)][Orn][dL][Dab][Cha][Val(3-OH)]SC[Dab]-NH2; thioether N-14) | 330 nM |
| CC(C)C[C@H]1NC(=O)[C@H](CCCN)NC(=O)[C@H](Cc2ccc(C(=O)O)cc2)NC(=O)[C@H](Cc2ccc(-c3ccccc3)cc2)NC(=O)[C@H](Cc2ccc(C(=O)O)cc2)NC(=O)[C@H](Cc2cccc(C(F)(F)F)c2)NC(=O)[C@H](CC(N)=O)NC(=O)[C@H](Cc2ccc(C(=O)O)cc2)NC(=O)[C@H](CN2CCOCC2)NC(=O)CSC[C@@H](C(=O)N[C@@H](CCN)C(N)=O)NC(=O)[C@H](CO)NC(=O)[C@H](C(C)(C)O)NC(=O)[C@H](CC2CCCCC2)NC(=O)[C@H](CCN)NC1=O [Example 2719] ({CH2CO}-[Ala(morpholin-4-yl)][Phe(4-COOH)]N[Phe(3-CF3)][Phe(4-COOH)][Bip][Phe(4-COOH)][Orn][dL][Dab][Cha][Val(3-OH)]SC[Dab]-NH2; thioether N-14) | 43.9 nM |
| Cc1cccc(C[C@@H]2NC(=O)[C@H](CC(N)=O)NC(=O)[C@H](Cc3ccc(C(=O)O)cc3)NC(=O)[C@H](CCN)NC(=O)CSC[C@@H](C(=O)N[C@@H](CCN)C(N)=O)NC(=O)[C@H](CO)NC(=O)[C@H](C(C)(C)O)NC(=O)[C@H](CC3CCCCC3)NC(=O)[C@H](CCN)NC(=O)[C@@H](CC(C)C)NC(=O)[C@H](CCCN)NC(=O)[C@H](Cc3ccc(C(=O)O)cc3)NC(=O)[C@H](Cc3ccc(-c4ccccc4)cc3)NC(=O)[C@H](Cc3ccc(C(=O)O)cc3)NC2=O)c1 [Example 2720] ({CH2CO}-[Dab][Phe(4-COOH)]N[Phe(3-Me)][Phe(4-COOH)][Bip][Phe(4-COOH)][Orn][dL][Dab][Cha][Val(3-OH)]SC[Dab]-NH2; thioether N-14) | 101 nM |
| Cc1cccc(C[C@@H]2NC(=O)[C@H](CC(N)=O)NC(=O)[C@H](Cc3ccc(C(=O)O)cc3)NC(=O)[C@H](CC(C)C)NC(=O)CSC[C@@H](C(=O)N[C@@H](CCN)C(N)=O)NC(=O)[C@H](CCC(=O)O)NC(=O)[C@H](C(C)C)NC(=O)[C@H](CC3CCCCC3)NC(=O)[C@H](CCN)NC(=O)[C@@H](CC(C)C)NC(=O)[C@H](CCCN)NC(=O)[C@H](Cc3ccc(C(=O)O)cc3)NC(=O)[C@H](Cc3ccc(-c4ccccc4)cc3)NC(=O)[C@H](Cc3ccc(C(=O)O)cc3)NC2=O)c1 [Example 2721] ({CH2CO}-L[Phe(4-COOH)]N[Phe(3-Me)][Phe(4-COOH)][Bip][Phe(4-COOH)][Orn][dL][Dab][Cha]VEC[Dab]-NH2; thioether N-14) | 190 nM |
| CC(C)C[C@H]1NC(=O)[C@H](CCCN)NC(=O)[C@H](Cc2ccc(C(=O)O)cc2)NC(=O)[C@H](Cc2ccc(-c3ccccc3)cc2)NC(=O)[C@H](Cc2ccc(C(=O)O)cc2)NC(=O)[C@H](Cc2cccc(C(F)(F)F)c2)NC(=O)[C@H](CC(N)=O)NC(=O)[C@H](Cc2ccc(C(=O)O)cc2)NC(=O)[C@H](CN2CCOCC2)NC(=O)CSC[C@@H](C(=O)N[C@@H](CCN)C(N)=O)NC(=O)[C@H](CCC(=O)O)NC(=O)[C@H](C(C)C)NC(=O)[C@H](CC2CCCCC2)NC(=O)[C@H](CCN)NC1=O [Example 2722] ({CH2CO}-[Ala(morpholin-4-yl)][Phe(4-COOH)]N[Phe(3-CF3)][Phe(4-COOH)][Bip][Phe(4-COOH)][Orn][dL][Dab][Cha]VEC[Dab]-NH2; thioether N-14) | 105 nM |
| CCCC[C@@H]1NC(=O)CSC[C@@H](C(=O)N[C@@H](CCN)C(N)=O)NC(=O)[C@H](CCC(=O)O)NC(=O)[C@H](C(C)C)NC(=O)[C@H](CC2CCCCC2)NC(=O)[C@H](CCN)NC(=O)[C@@H](CC(C)C)NC(=O)[C@H](CCCN)NC(=O)[C@H](Cc2ccc(C(=O)O)cc2)NC(=O)[C@H](Cc2ccc(-c3ccccc3)cc2)NC(=O)[C@H](Cc2ccc(C(=O)O)cc2)NC(=O)[C@H](Cc2cccc(C)c2)NC(=O)[C@H](CC(N)=O)NC(=O)[C@H](Cc2ccc(OCC(=O)O)cc2)NC1=O [Example 2723] ({CH2CO}-[Nle]Y(Carboxymethyl)N[Phe(3-Me)][Phe(4-COOH)][Bip][Phe(4-COOH)][Orn][dL][Dab][Cha]VEC[Dab]-NH2; thioether N-14) | 200 nM |
